Tested on: diarrhea-predominant IBS subjects
Assay: Study S241.3.006: weekly diary questions on adequate relief
Format: in vivo, human
Description: The study was conducted in 129 study centers in the United States. At total of 2080 subjects consented to participate, and 711 subjects were randomized. A total of 692 subjects were analyzed for efficacy and 701 subjects were analyzed for safety. Diagnosis and main criteria for inclusion were IBS subjects satisfying the Rome I criteria (1992); the diarrhea predominant sub-population of the Rome II criteria; and a minimum abdominal pain/discomfort, stool frequency and consistency determined during the run-in period. Subjects were treated with cilansetron 2 mg tablets given orally TID or matching placebo tablets given orally TID for 12 weeks double-blind treatment.
The primary efficacy parameter was the number of months that a subject was a responder for IBS symptoms (abdominal pain, abdominal discomfort, abnormal bowel habits) over the 12-week treatment period. A responder for a month (monthly responder) was defined as a subject who answered the weekly question with “yes” at least twice for that month.
Studies S24 1.3.OO6, S24 1.3.0 1 1, and S24 1.3.009 used the following efficacy measurements: • The subjects answered the following three questions with “yes” or “no” using a phone diary at the end of each week: • a) During the last week, did you experience adequate relief of your IBS symptoms, such as abdominal pain, abdominal discomfort, abnormal bowel habits? • b) During the last week, did you experience adequate relief of your abdominal pain and/or discomfort? • c) During the last week, did you experience adequate relief of your abnormal bowel habits? • The subjects rated the following symptoms using the phone diary at the end of each day: • abdominal pain/discomfort (five-point scale); • stool consistency (seven-point Bristol Stool Scale); • stool frequency (number of bowel movements each day); • urgency (five-point scale); • straining (yes or no); • feeling of incomplete defecation (yes or no); • bloating or feeling of abdominal distension (five-point scale). • In Studies S241 A006 and S241.3.009, subjects completed the IBS-QOL Survey at Baseline (Day 1) and at the end of treatment. In Study S24 1.3.0 1 1, subjects completed the IBS-QOL Survey at Baseline (Day 1), at the end of the three-month treatment period, and at the end of rerandomized treatment.
In all three pivotal efficacy studies, the primary and main secondary efficacy parameters were based on the weekly diary questions on adequate relief and included the following: • 1. Number of months (one month equals four weeks) that a subject was a responder for the weekly diary questions on adequate relief. A responder for a month (monthly responder) was defined as a subject who answered the weekly question with “yes” at least twice for that month. For Studies S241.3.006 and S241.3.011, the primary efficacy parameter was the number of months that a subject was a responder for IBS symptoms during the 12-week treatment period. The two main secondary efficacy parameters were the number of months that a subject was a responder for abdominal pain/discomfort and abnormal bowel habits during the 12-week treatment period. For Study S241.3.009, the number of months that a subject was a responder for the weekly diary questions on adequate relief during Months 1 to 3 (the first 12 weeks) and Months 1 to 6 (24-week) was an additional key secondary efficacy parameter. • 2. Overall responder rate for the weekly diary questions on adequate relief. A responder was defined as a subject who answered the weekly question with “yes” for at least half of the answers available with a minimum of four weeks treatment duration. If a subject had less than four weeks treatment duration, the subject was considered a non-responder. The overall responder rate was the percentage of responders within a treatment group. For Study S241.3.009, the primary efficacy parameter was the overall responder rate for IBS symptoms during the 26-week treatment period. […]

[1] = 2 mg TID, monthly LOCF, ITT N = 344
[2] = 2 mg TID, three-month treatment period, monthly LOCF, ITT N = 344
[3] = 2 mg TID, three-month treatment period, observed case, ITT N = 344
[4] = Baseline BMI: <30 kg/m^2, three-month treatment period, monthly LOCF, ITT, 2 mg TID
[5] = Baseline BMI: ≧30 kg/m^2, three-month treatment period, monthly LOCF, ITT, 2 mg TID
[6] = Baseline severity of IBS: non-severe, three-month treatment period, monthly LOCF, ITT, 2 mg TID
[7] = Baseline severity of IBS: non-severe, three-month treatment period, observed case, ITT, 2 mg TID
[8] = Baseline severity of IBS: severe, three-month treatment period, monthly LOCF, ITT, 2 mg TID
[9] = Baseline severity of IBS: severe, three-month treatment period, observed case, ITT, 2 mg TID

Cc1nccn1C[C@H]1CCc2c(c3cccc4c3n2CCC4)C1=O [Cilansetron, (R)-(−)-4,5,6,8,9,10-hexahydro-10-[(2-methyl-1H-imidazol-1-yl)methyl]-11H-pyrido-[3,2,1-jk]-carbazol-11-one]
Responders for one month, IBS symptoms (2 mg TID, 3 months): 13%
Responders for one month, abdominal pain/discomfort (2 mg TID, 3 months): 12%
Responders for one month, abnormal bowel habits (2 mg TID, 3 months): 12%
Responders for three months, IBS symptoms (2 mg TID, 3 months): 35%
Responders for three months, abdominal pain/discomfort (2 mg TID, 3 months): 40%
Responders for three months, abnormal bowel habits (2 mg TID, 3 months): 38%
Responders for two months, IBS symptoms (2 mg TID, 3 months): 15%
Responders for two months, abdominal pain/discomfort (2 mg TID, 3 months): 14%
Responders for two months, abnormal bowel habits (2 mg TID, 3 months): 15%
Responders for zero months, IBS symptoms (2 mg TID, 3 months): 37%
Responders for zero months, abdominal pain/discomfort (2 mg TID, 3 months): 34%
Responders for zero months, abnormal bowel habits (2 mg TID, 3 months): 36%
Responder rate, adequate relief of IBS symptoms, Each month of Months 1 to 3 [1]: 119 (35) n (%)
Responder rate, adequate relief of IBS symptoms, Month 1 [1]: 176 (51) n (%)
Responder rate, adequate relief of IBS symptoms, Month 2 [1]: 163 (47) n (%)
Responder rate, adequate relief of IBS symptoms, Month 3 [1]: 169 (49) n (%)
Responder rate, adequate relief of abdominal pain/discomfort, Each month of Months 1 to 3 [1]: 139 (40) n (%)
Responder rate, adequate relief of abdominal pain/discomfort, Month 1 [1]: 192 (56) n (%)
Responder rate, adequate relief of abdominal pain/discomfort, Month 2 [1]: 178 (52) n (%)
Responder rate, adequate relief of abdominal pain/discomfort, Month 3 [1]: 183 (53) n (%)
Responder rate, adequate relief of abnormal bowel habits, Each month of Months 1 to 3 [1]: 129 (38) n (%)
Responder rate, adequate relief of abnormal bowel habits, Month 1 [1]: 180 (52) n (%)
Responder rate, adequate relief of abnormal bowel habits, Month 2 [1]: 178 (52) n (%)
Responder rate, adequate relief of abnormal bowel habits, Month 3 [1]: 173 (50) n (%)
Subjects who were responders for One month, adequate relief of IBS symptoms [2]: 45 (13) n (%)
Subjects who were responders for One month, adequate relief of abdominal pain/discomfort [2]: 42 (12) n (%)
Subjects who were responders for One month, adequate relief of abnormal bowel habits [2]: 40 (12) n (%)
Subjects who were responders for Three months, adequate relief of IBS symptoms [2]: 119 (35) n (%)
Subjects who were responders for Three months, adequate relief of abdominal pain/discomfort [2]: 139 (40) n (%)
Subjects who were responders for Three months, adequate relief of abnormal bowel habits [2]: 129 (38) n (%)
Subjects who were responders for Two months, adequate relief of IBS symptoms [2]: 53 (15) n (%)
Subjects who were responders for Two months, adequate relief of abdominal pain/discomfort [2]: 47 (14) n (%)
Subjects who were responders for Two months, adequate relief of abnormal bowel habits [2]: 52 (15) n (%)
Subjects who were responders for Zero months, adequate relief of IBS symptoms [2]: 127 (37) n (%)
Subjects who were responders for Zero months, adequate relief of abdominal pain/discomfort [2]: 116 (34) n (%)
Subjects who were responders for Zero months, adequate relief of abnormal bowel habits [2]: 123 (36) n (%)
Overall responder rate, adequate relief of IBS symptoms [3]: 168 (49) n (%)
Overall responder rate, adequate relief of abdominal pain/discomfort [3]: 179 (52) n (%)
Overall responder rate, adequate relief of abnormal bowel habits [3]: 174 (51) n (%)
Median adequate relief rate, IBS symptoms (3 months): 0.50
Median adequate relief rate, abdominal pain/discomfort (3 months): 0.58
Median adequate relief rate, abnormal bowel habits (3 months): 0.50
Overall responder rate, IBS symptoms (3 months, observed case, ITT): 49%
Overall responder rate, abdominal pain/discomfort (3 months, observed case, ITT): 52%
Overall responder rate, abnormal bowel habits (3 months, observed case, ITT): 51%
Number of months a subject was a responder: One month (Abdominal pain/discomfort) [4]: 26 (11) n (%)
Number of months a subject was a responder: One month (Abnormal bowel habits) [4]: 27 (12) n (%)
Number of months a subject was a responder: One month (IBS symptoms) [4]: 29 (13) n (%)
Number of months a subject was a responder: Three months (Abdominal pain/discomfort) [4]: 96 (42) n (%)
Number of months a subject was a responder: Three months (Abnormal bowel habits) [4]: 83 (36) n (%)
Number of months a subject was a responder: Three months (IBS symptoms) [4]: 80 (35) n (%)
Number of months a subject was a responder: Two months (Abdominal pain/discomfort) [4]: 29 (13) n (%)
Number of months a subject was a responder: Two months (Abnormal bowel habits) [4]: 37 (16) n (%)
Number of months a subject was a responder: Two months (IBS symptoms) [4]: 35 (15) n (%)
Number of months a subject was a responder: Zero months (Abdominal pain/discomfort) [4]: 79 (34) n (%)
Number of months a subject was a responder: Zero months (Abnormal bowel habits) [4]: 83 (36) n (%)
Number of months a subject was a responder: Zero months (IBS symptoms) [4]: 86 (37) n (%)
Number of months a subject was a responder: One month (Abdominal pain/discomfort) [5]: 16 (14) n (%)
Number of months a subject was a responder: One month (Abnormal bowel habits) [5]: 13 (11) n (%)
Number of months a subject was a responder: One month (IBS symptoms) [5]: 16 (14) n (%)
Number of months a subject was a responder: Three months (Abdominal pain/discomfort) [5]: 43 (38) n (%)
Number of months a subject was a responder: Three months (Abnormal bowel habits) [5]: 46 (40) n (%)
Number of months a subject was a responder: Three months (IBS symptoms) [5]: 39 (34) n (%)
Number of months a subject was a responder: Two months (Abdominal pain/discomfort) [5]: 18 (16) n (%)
Number of months a subject was a responder: Two months (Abnormal bowel habits) [5]: 15 (13) n (%)
Number of months a subject was a responder: Two months (IBS symptoms) [5]: 18 (16) n (%)
Number of months a subject was a responder: Zero months (Abdominal pain/discomfort) [5]: 37 (32) n (%)
Number of months a subject was a responder: Zero months (Abnormal bowel habits) [5]: 40 (35) n (%)
Number of months a subject was a responder: Zero months (IBS symptoms) [5]: 41 (36) n (%)
Number of months a subject was a responder: One month (Abdominal pain/discomfort) [6]: 9 (6) n (%)
Number of months a subject was a responder: One month (Abnormal bowel habits) [6]: 16 (11) n (%)
Number of months a subject was a responder: One month (IBS symptoms) [6]: 18 (12) n (%)
Number of months a subject was a responder: Three months (Abdominal pain/discomfort) [6]: 72 (49) n (%)
Number of months a subject was a responder: Three months (Abnormal bowel habits) [6]: 68 (46) n (%)
Number of months a subject was a responder: Three months (IBS symptoms) [6]: 60 (41) n (%)
Number of months a subject was a responder: Two months (Abdominal pain/discomfort) [6]: 25 (17) n (%)
Number of months a subject was a responder: Two months (Abnormal bowel habits) [6]: 22 (15) n (%)
Number of months a subject was a responder: Two months (IBS symptoms) [6]: 24 (16) n (%)
Number of months a subject was a responder: Zero months (Abdominal pain/discomfort) [6]: 42 (28) n (%)
Number of months a subject was a responder: Zero months (Abnormal bowel habits) [6]: 42 (28) n (%)
Number of months a subject was a responder: Zero months (IBS symptoms) [6]: 46 (31) n (%)
Overall responder rate, adequate relief of IBS symptoms [7]: 81 (55) n (%)
Overall responder rate, adequate relief of abdominal pain/discomfort [7]: 89 (60) n (%)
Overall responder rate, adequate relief of abnormal bowel habits [7]: 84 (57) n (%)
Number of months a subject was a responder: One month (Abdominal pain/discomfort) [8]: 33 (17) n (%)
Number of months a subject was a responder: One month (Abnormal bowel habits) [8]: 24 (12) n (%)
Number of months a subject was a responder: One month (IBS symptoms) [8]: 27 (14) n (%)
Number of months a subject was a responder: Three months (Abdominal pain/discomfort) [8]: 67 (34) n (%)
Number of months a subject was a responder: Three months (Abnormal bowel habits) [8]: 61 (31) n (%)
Number of months a subject was a responder: Three months (IBS symptoms) [8]: 59 (30) n (%)
Number of months a subject was a responder: Two months (Abdominal pain/discomfort) [8]: 22 (11) n (%)
Number of months a subject was a responder: Two months (Abnormal bowel habits) [8]: 30 (15) n (%)
Number of months a subject was a responder: Two months (IBS symptoms) [8]: 29 (15) n (%)
Number of months a subject was a responder: Zero months (Abdominal pain/discomfort) [8]: 74 (38) n (%)
Number of months a subject was a responder: Zero months (Abnormal bowel habits) [8]: 81 (41) n (%)
Number of months a subject was a responder: Zero months (IBS symptoms) [8]: 81 (41) n (%)
Overall responder rate, adequate relief of IBS symptoms [9]: 87 (44) n (%)
Overall responder rate, adequate relief of abdominal pain/discomfort [9]: 90 (46) n (%)

Reference: patent US20090176817A1, “Method of Treatment of Diarrhea-Predominant Irritable Bowel Syndrome in a Subject” (priority 2005, published 2009)
